Measurements as given in paper PMC7552917, “Systematic exploration of different E3 ubiquitin ligases: an approach towards potent and selective CDK6 degraders” (Chemical Science, 2020).

Tests used:
[1] = set-up: method as in earlier work; settings: calibration compounds; cited from earlier work
IKZF1 = molecular target: T1, IKZF1 (Homo sapiens, UniProt Q13422+Q96SW2); assay: Neosubstrate IKZF1 degradation, western blot of MM.1S cells; format: cell-based; settings: MM1.S, 16 h, normalized to DMSO (100%), read-out: D IKZF1: remaining IKZF1 levels;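 further: test concentration 0.1 µM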
T1 construct: endogenous in cells; host or cells: MM.1S (human multiple myeloma)
From the text: (§1) We determined the concentration of both kinases and CRBN, the latter in order to control the expression of the corresponding ligase. Since IMiDs, such as pomalidomide, cause the degradation of the lymphoid transcription factors Ikaros (IKZF1) and Aiolos (IKZF3) through the involvement of CRBN,[53],[54] this undesired effect was inspected. […] As further characteristics of CDK4/6d, the desired selectivity of CDK6 over CDK4 degradation and the unwanted influence on the IKZF1 concentration were determined. […] Next, we determined the concentration- and time-dependent activity of 11 (Fig. S2, ESI ^†).
(§2) Multiple myeloma, leukaemia, and murine cell lines:
(§3) After respective designated treatments, cells were washed with 1× PBS and lysed in IP lysis buffer (Pierce) containing HALT protease and phosphatase inhibitor cocktail (Thermo Scientific). Sodium dodecyl sulfate-polyacrylamide gel electrophoresis (SDS-PAGE) was performed with 5–20 µg of protein loaded per sample. Gel electrophoresis was carried out at a constant voltage. Proteins were transferred onto Immobilon-P transfer membranes (Millipore). Membranes were blocked with 5% milk in Tris Buffered Saline with 0.05% Tween 20 (TBS-T) followed by overnight incubation at 4 °C with shaking in primary antibodies diluted in 5% BSA in TBS-T. After incubation with respective secondary HRP-conjugated antibodies diluted in 5% milk in TBST, detection of proteins was performed using either WesternBright ECL HRP substrate or WesternBright Sirius HRP substrate (Advansta). Chemiluminescence was detected with ChemiDoc™ XRS+ System (Bio-Rad). For further detection of other proteins on the same membrane, membranes were subjected to incubation in Restore Western Blot Stripping Buffer, followed by re-blocking, and further probing of proteins was […]

[2] = elog D7.4 by chromatographic (HPLC) method; format: physicochemical; settings: Polaris C18-A column, pH 7.4, read-out: elog D7.4 (experimental distribution coefficient at pH 7.4)
Experimental: Supplementary Information: Physical Chemistry
N. Molecular Descriptor Calculation […]
O. Physicochemical Measurements
The determination of the elog D7.4 values was performed by a chromatographic method according to […]
The column was a Polaris C18-A column (2 mm I.D., 50 mm length, 3 μm particle size) from Agilent Technologies. A linear mobile phase gradient was applied with […] TRIS buffer adjusted to pH 7.4 and MeCN. Therefore, the gradient was run from 5% […]
between the runs with a constant flow-rate of 0.8 ml/min and a temperature of 25 °C. The output wavelength of the detector was set to 269.5 nm. In order to calibrate the log D7.4 to the retention time, 6 different drugs with known log D7.4 were dissolved in DMSO and 10 µl were injected […]
Approximately 1 mg of the samples was dissolved in DMSO and 5 µl were injected. Analyses were conducted in duplicates. Subsequently, the mean retention times of the analytes were taken to calculate their log D7.4 values with aid of the calibration line.

CDK4 = molecular target: T2, CDK4 (Homo sapiens, UniProt P11802); assay: CDK4 degradation, western blot of MM.1S cells; format: cell-based; settings: MM1.S; 0.1 μM, 16 h, MM.1S cells, normalized to DMSO (100%); read-out: D CDK4: remaining CDK4 levels
T2 construct: Percentage values are normalized to DMSO-treated MM.1S cells and the respective loading controls; endogenous in cells; host or cells: MM.1S (human multiple myeloma)
From the text: as §1, §2, §3

[3] = Susceptibility to hydrolysis in buffer, LC/MS; format: physicochemical; settings: 37 °C
Experimental: Next, we investigated the persistence of CDK6 degradation after single drug exposure. […] The differences were even more pronounced when conducting a drug washout-step, showing that while BSJ-03-123 kept CDK6 protein below 50% for a maximum of 6 h, CDK6 degradation mediated by PROTACs 27 and 34 was more persistent and stable for up to 72 h (Fig. 4E and S10, ESI ^†). […] Since these degraders mainly differ in the ligase-binding part, we hypothesized that the deviations in the long-term experiments (Fig. 5A) are due to chemical inactivation of the CRBN ligand. We then tested compounds 27, 34 (VHL-based) and BSJ-03-123 (8, CRBN-based) for susceptibility to hydrolysis. These PROTACs were incubated in two different buffers for 24 h at 37 °C and aliquots were analysed by LC/MS.
Fig. 5 (A) Quantification of long-term treatment experiments (see Fig. S9, ESI ^†) and (B) drug stability data at pH 1 and pH 7.4. Acetonitrile solutions of the PROTACs were mixed with two different buffers and incubated for 24 hours at 37 °C. Subsequently, aliquots were analysed by LC/MS and normalized to acetonitrile solutions.

CDK6 [4] = molecular target: T3, CDK6 (Homo sapiens, UniProt Q00534); assay: CDK6 degradation, western blot of MM.1S cells; format: cell-based; settings: MM.1S cells; for Selectivity ratio D CDK4/D CDK6 for the degradation of CDK6 over CDK4 / remaining activity at 0.1 µM: 0.1 μM; for Selectivity ratio D CDK4/D CDK6 for the degradation of CDK6 over CDK4 / remaining activity at 0.1 µM / remaining activity at 1 µM: 16 h; for remaining activity at 0.1 µM / remaining activity at 1 µM: MM1.S, normalized to DMSO (100%), read-out: D CDK6: remaining CDK6 levels
T3 construct: Percentage values are normalized to DMSO-treated MM.1S cells and the respective loading controls; endogenous in cells; host or cells: MM.1S (human multiple myeloma)
From the text: as §1, §2, §3

CDK6 [5] = molecular target: T4, CDK6 (Mus musculus, UniProt Q64261); assay: CDK6 degradation in murine cell lines 32D and Ba/F3, western blot; format: cell-based; settings: 16 h
T4 construct: western blotting experiments with the murine myeloid 32D cell line and the murine pro-B-cell line Ba/F3; endogenous in cells; host or cells: 32D (murine myeloid) and Ba/F3 (murine pro-B)
From the text: When bound to IMiDs, human CRBN induces the recruitment of the neosubstrates IKZF1 and IKZF3 via a Val-388 interaction,[53],[55] leading to their subsequent proteasomal degradation. […] The previously reported BRD4 degrader dBET1 was capable of binding to murine CRBN and performed as an active PROTAC in murine cells.[57],[58] To test whether our CRBN-based degrader 11 maintains CDK6 degradation across different species, we performed western blotting experiments with the murine myeloid 32D cell line and the murine pro-B-cell line Ba/F3 (Fig. 2A). […] While the activity of BSJ-03-123 (8) was attenuated at this concentration, 11 mediated on-target effects at concentrations as low as 10 nM (Fig. 2B).
Fig. 2 CDK6 degradation by CRBN-based degrader 11 is conserved in murine cell lines. (A) Human cell lines MM.1S and murine cell lines 32D and Ba/F3 were treated with vehicle, pomalidomide (POM), CDK6-selective degrader BSJ-03-123 (8), negative control 21, or PROTAC 11 at 0.1 μM for 16 h; (B) CDK6-degradation is induced in a dose-dependent manner in murine cells. Murine cell lines 32D and Ba/F3 were treated with PROTAC 11 at indicated concentrations for 16 h.
as §2
After respective designated treatments, cells were washed with 1× PBS and lysed in IP lysis buffer (Pierce) containing HALT protease and phosphatase inhibitor cocktail (Thermo Scientific). Sodium dodecyl sulfate-polyacrylamide gel electrophoresis (SDS-PAGE) was performed with 5–20 µg of protein loaded per sample. Gel electrophoresis was carried out at a constant voltage. Proteins were transferred onto Immobilon-P transfer membranes (Millipore). Membranes were blocked with 5% milk in Tris Buffered Saline with 0.05% Tween 20 (TBS-T) followed by overnight incubation at 4 °C with shaking in primary antibodies diluted in 5% BSA in TBS-T. After incubation with respective secondary HRP-conjugated antibodies diluted in 5% milk in TBST, detection of proteins was performed using either WesternBright ECL HRP substrate or WesternBright Sirius HRP substrate (Advansta). Chemiluminescence was detected with ChemiDoc™ XRS+ System (Bio-Rad). For further detection of other proteins on the same membrane, membranes were subjected to incubation in Restore Western Blot Stripping Buffer, followed by re-blocking, and further probing of proteins was carried out. Quantification was performed using ImageJ (National Institutes of Health). […]

MDA-MB-231 cells = assay: Cell viability assay (CellTiter-Glo), MDA-MB-231 breast cancer cells; format: cell-based, human; settings: 96 h
Experimental: Breast cancer cell lines:
To access the compound effect on cell viability, cells were plated in 384-well tissue culture-treated plates (Greiner Bio One). Twenty-four hours later, tested compounds were added into culture to the desired concentrations. Cell viability was measured by using CellTiter-Glo® Luminescent Cell Viability Assay (Promega) at day 4 or day 7 post-treatment and normalized by non-treated controls. […]
Dose response curves were modeled and plotted by using GraphPad Prism software (GraphPad Software). Statistical analysis was performed using GraphPad Prism software (GraphPad Software).
Variance of biological replicates is represented as the standard error of the mean (SEM) or as the […]

T4 sequence (Q64261 whole entry): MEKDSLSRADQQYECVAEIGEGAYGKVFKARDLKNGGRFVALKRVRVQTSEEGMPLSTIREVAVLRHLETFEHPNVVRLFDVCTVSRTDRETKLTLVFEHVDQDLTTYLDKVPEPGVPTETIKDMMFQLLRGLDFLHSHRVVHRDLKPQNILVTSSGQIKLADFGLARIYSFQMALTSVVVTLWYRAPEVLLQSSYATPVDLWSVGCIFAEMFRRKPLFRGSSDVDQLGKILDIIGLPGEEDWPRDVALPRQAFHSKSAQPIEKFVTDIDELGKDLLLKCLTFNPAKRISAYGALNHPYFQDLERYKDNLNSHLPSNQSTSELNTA
T1 sequence (Q13422 whole entry): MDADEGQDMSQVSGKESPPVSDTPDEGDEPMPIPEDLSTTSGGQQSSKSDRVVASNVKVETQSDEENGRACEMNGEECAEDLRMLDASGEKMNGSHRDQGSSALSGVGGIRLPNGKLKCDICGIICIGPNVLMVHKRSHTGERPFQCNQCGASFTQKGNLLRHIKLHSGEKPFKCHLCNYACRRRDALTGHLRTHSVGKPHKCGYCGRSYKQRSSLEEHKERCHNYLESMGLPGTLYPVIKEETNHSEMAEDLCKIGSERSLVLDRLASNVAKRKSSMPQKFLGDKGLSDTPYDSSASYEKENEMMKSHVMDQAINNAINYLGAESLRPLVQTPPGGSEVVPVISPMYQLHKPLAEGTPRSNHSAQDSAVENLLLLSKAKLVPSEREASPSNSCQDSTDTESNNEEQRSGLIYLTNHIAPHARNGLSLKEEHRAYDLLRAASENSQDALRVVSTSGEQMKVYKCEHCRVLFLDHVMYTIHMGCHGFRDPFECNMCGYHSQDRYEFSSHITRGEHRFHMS
T1 sequence (Q96SW2 whole entry): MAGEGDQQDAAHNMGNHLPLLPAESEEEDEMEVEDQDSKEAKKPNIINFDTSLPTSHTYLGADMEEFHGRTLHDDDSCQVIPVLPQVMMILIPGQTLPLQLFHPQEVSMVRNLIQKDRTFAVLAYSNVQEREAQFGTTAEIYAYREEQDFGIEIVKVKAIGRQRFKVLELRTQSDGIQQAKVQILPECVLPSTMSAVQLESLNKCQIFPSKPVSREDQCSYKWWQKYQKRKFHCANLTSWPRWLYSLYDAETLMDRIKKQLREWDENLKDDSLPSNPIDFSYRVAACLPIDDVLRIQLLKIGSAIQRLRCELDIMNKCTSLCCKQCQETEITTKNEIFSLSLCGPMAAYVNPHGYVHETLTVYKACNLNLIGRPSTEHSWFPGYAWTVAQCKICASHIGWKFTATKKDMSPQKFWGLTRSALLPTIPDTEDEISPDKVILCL
T1 sequence (Q16531 whole entry partner): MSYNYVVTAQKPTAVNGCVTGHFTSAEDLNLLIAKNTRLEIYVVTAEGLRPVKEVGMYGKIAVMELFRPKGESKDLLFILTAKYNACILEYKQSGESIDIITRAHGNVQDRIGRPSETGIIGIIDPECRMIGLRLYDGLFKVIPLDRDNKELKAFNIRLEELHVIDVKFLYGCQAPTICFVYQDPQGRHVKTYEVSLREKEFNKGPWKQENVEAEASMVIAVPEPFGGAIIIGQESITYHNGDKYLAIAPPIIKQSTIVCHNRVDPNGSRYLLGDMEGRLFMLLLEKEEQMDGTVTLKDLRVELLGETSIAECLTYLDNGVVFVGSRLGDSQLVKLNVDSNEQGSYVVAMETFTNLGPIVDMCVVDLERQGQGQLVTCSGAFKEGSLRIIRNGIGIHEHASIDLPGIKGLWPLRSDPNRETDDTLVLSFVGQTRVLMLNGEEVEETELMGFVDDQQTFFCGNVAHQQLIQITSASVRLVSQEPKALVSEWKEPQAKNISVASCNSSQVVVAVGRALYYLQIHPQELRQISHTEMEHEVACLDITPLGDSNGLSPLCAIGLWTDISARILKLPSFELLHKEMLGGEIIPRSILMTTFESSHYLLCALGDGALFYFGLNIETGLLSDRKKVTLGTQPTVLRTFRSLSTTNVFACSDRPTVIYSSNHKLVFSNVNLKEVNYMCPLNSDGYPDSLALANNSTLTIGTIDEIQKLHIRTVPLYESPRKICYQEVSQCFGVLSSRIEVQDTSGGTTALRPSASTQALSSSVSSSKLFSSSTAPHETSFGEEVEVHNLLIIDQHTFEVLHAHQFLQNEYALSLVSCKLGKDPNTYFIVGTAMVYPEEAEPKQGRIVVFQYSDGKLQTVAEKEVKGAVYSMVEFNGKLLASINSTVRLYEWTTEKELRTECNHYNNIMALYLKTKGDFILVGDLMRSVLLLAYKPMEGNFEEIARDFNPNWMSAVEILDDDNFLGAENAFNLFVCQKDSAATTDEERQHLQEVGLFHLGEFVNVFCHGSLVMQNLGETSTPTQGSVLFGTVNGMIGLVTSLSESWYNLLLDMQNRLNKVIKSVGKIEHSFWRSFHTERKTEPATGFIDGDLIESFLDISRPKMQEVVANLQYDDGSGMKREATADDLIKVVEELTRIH
T3 sequence (Q00534 whole entry): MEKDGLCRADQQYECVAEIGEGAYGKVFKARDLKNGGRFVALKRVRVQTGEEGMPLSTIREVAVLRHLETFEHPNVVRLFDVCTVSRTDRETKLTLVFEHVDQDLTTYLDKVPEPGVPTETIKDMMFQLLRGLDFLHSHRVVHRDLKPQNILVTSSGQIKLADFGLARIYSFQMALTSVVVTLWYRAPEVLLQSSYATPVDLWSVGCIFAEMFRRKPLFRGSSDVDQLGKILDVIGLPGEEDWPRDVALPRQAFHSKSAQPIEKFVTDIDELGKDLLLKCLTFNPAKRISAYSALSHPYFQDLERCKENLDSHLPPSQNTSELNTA
T2 sequence (P11802 whole entry): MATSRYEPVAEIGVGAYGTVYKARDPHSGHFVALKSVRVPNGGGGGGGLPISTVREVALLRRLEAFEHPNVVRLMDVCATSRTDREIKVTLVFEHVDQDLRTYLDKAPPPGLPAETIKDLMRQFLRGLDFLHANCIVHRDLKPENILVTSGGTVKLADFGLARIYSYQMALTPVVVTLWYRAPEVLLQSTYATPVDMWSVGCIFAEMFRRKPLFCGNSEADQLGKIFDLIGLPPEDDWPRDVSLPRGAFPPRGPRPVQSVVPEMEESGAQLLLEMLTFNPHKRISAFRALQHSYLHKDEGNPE

Row | SMILES | remaining activity at 0.1 µM (IKZF1) | chromatographic logD [2] | remaining activity at 0.1 µM (CDK4) | Selectivity ratio D CDK4/D CDK6 for the degradation of CDK6 over CDK4 (CDK6 [4]) | remaining activity at 0.1 µM (CDK6 [4]) | also measured
1 | COCCc1ccc(OCC(O)CNC(C)C)cc1 (stereo not shown) [Metoprolol] |  |  |  |  |  | Lit. log D7.4 [1]: –0.06
2 | CC1(C)C(C=C(Cl)Cl)C1C(=O)OCc1cccc(Oc2ccccc2)c1 (stereo not shown) [Permethrin] |  |  |  |  |  | Lit. log D7.4 [1]: 6.50
3 | CC(=O)c1c(C)c2cnc(Nc3ccc(N4CCN(CCOCCOCCOCCNC(=O)COc5cccc6c5C(=O)N(C5CCC(=O)NC5=O)C6=O)CC4)cn3)nc2n(C2CCCC2)c1=O (stereo not shown) [8 (BSJ-03-123), BSJ-03-123, reference compound] | 82% | 2.5 | 27% | 4.9 | 5.5% | Stability to hydrolysis at pH 1 ([3]; buffer pH 1, 24 h): stable; Stability to hydrolysis at pH 7.4 ([3]; buffer pH 7.4, 24 h): pronounced decomposition; remaining activity at 1 µM (CDK6 [4]): 2.1%; Time CDK6 degradation persists (CDK6 protein below 50%) after drug washout (CDK6 [4]; 0.1 μM for 16 h, then washout with PBS): ≤ 6 h; Persistence of CDK6 degradation after single drug exposure (long-term treatment) (CDK6 [4]; no washout): began to recover after 24 h; CDK6 degradation in murine cells (CDK6 [5]; 32D and Ba/F3 cells, 0.1 μM): attenuated
4 | CC(=O)c1c(C)c2cnc(Nc3ccc(N4CCN(C(=O)CCCCCNc5cccc6c5C(=O)N(C5CCC(=O)NC5=O)C6=O)CC4)cn3)nc2n(C2CCCC2)c1=O (stereo not shown) [compound 11] | 1% | 3.4 | 25% | 2.3 | 11% | CDK6 degradation in murine cells (CDK6 [5]; 32D and Ba/F3 cells, 0.1 μM): induced strong CDK6 degradation; Lowest concentration mediating on-target effects (CDK6 degradation) in murine cells (CDK6 [5]; 32D and Ba/F3 cells): 10 nM
5 | CC(=O)c1c(C)c2cnc(Nc3ccc(N4CCN(C(=O)COCCOCCNc5cccc6c5C(=O)N(C5CCC(=O)NC5=O)C6=O)CC4)cn3)nc2n(C2CCCC2)c1=O (stereo not shown) [compound 12] | 0.8% | 2.8 | 19% | 2.3 | 8.4% | 
6 | CC(=O)c1c(C)c2cnc(Nc3ccc(N4CCN(C(=O)CCCCCOCCCCCCOCCCCCCNc5cccc6c5C(=O)N(C5CCC(=O)NC5=O)C6=O)CC4)cn3)nc2n(C2CCCC2)c1=O (stereo not shown) [compound 17] | 18% | 5.2 | 86% | 1.7 | 51% | 
7 | COc1ccc([C@@H]2Sc3ccccc3N(CCN(C)C)C(=O)[C@@H]2OC(C)=O)cc1 [Diltiazem] |  |  |  |  |  | Lit. log D7.4 [1]: 2.70

Continued, in another order:

Row | remaining activity at 0.1 µM (IKZF1) | chromatographic logD [2] | remaining activity at 0.1 µM (CDK4) | Selectivity ratio D CDK4/D CDK6 for the degradation of CDK6 over CDK4 (CDK6 [4]) | remaining activity at 0.1 µM (CDK6 [4]) | SMILES | also measured
8 |  | 3.3 | 12% | 4.1 | 2.9% | CC(=O)c1c(C)c2cnc(Nc3ccc(N4CCN(CCCCCCCC(=O)N[C@H](C(=O)N5C[C@H](O)C[C@H]5C(=O)NCc5ccc(-c6scnc6C)cc5)C(C)(C)C)CC4)cn3)nc2n(C2CCCC2)c1=O [compound 22] | remaining activity at 1 µM (CDK6 [4]): 4.1%; CDK6 degradation in murine cells (CDK6 [5]; Ba/F3 and 32D cells, 1 μM): pronounced CDK6 degradation
9 |  | 3 | 82% |  | > 95% | CC(=O)c1c(C)c2cnc(Nc3ccc(N4CCN(CCOCCOCCOc5cc(-c6scnc6C)ccc5CNC(=O)[C@@H]5C[C@H](O)CN5C(=O)[C@H](C(C)C)N5Cc6ccccc6C5=O)CC4)cn3)nc2n(C2CCCC2)c1=O [compound 32] | Inhibitory activity on cell viability relative to palbociclib (MDA-MB-231 cells): inhibitory activity comparable to palbociclib
10 | 35% | 5.4 | > 95% |  | 51% | CC(=O)c1c(C)c2cnc(Nc3ccc(N4CCN(C(=O)CCCCCOCCCCOCCCCOCCCCOCCCCCCNc5cccc6c5C(=O)N(C5CCC(=O)NC5=O)C6=O)CC4)cn3)nc2n(C2CCCC2)c1=O (stereo not shown) [compound 19] | 
11 |  | 3.2 | > 95% |  | > 95% | CC(=O)c1c(C)c2cnc(Nc3ccc(N4CCN(CCCCCCCC(=O)N[C@H](C(=O)N5C[C@@H](O)C[C@H]5C(=O)NCc5ccc(-c6scnc6C)cc5)C(C)(C)C)CC4)cn3)nc2n(C2CCCC2)c1=O [compound 26] | Inhibitory activity on cell viability relative to palbociclib (MDA-MB-231 cells): inhibitory activity comparable to palbociclib
